Measured values: patent US20070197543A1, “Use of derivatives of 2, 5-dihydroxyb enzene-sulphonic acids in the elaboration of a medicinal product to enhance the effect of other drugs used for the treatment of erectile dysfunction” (Laboratorios del Dr. Esteve, S.A., priority 2001, published 2007)

Tests used:
[1] = test system: resistance arteries of the human penis; experiment: Relaxation of noradrenaline-contracted human penile resistance arteries induced by sodium nitroprussiate (myograph); settings: 10 μM; arteries contracted with 1 μM noradrenaline; FIG. 1
Procedure: (§1) To study the enhancing effect of medicinal products used to facilitate penile erection in man a series of studies were carried out of the resistance arteries of the human penis, obtained from patients submitted to penile prosthesis implantation.
(§2) Specimens of human cavernous bodies of the penis were obtained from patients with impotence while these were intervened for prosthetic implantation, as described previously (Gupta et al.; Br. J. Pharmacol., 116: 2201, 1995). The tissues were deposited in M-400 solution (pH 7.4; 400 mOsm/kg. Composition in w/v: 4.19% manitole, 0.2% KH2PO4, 0.97% K2HPO4.3 H2O, 0.11% KCl and 0.08% NaHCO3) at 4° C. at the moment of explant and were transported to the laboratory to be used within the following 16 h.
(§3) The resistance arteries of the penis, helicine arteries (with a luminal diameter of 150-400 μm), which are terminal branches of the deep arteries of the penis, were dissected carefully removing the surrounding trabecular tissue and were cut into 2 mm long arterial segments that were arranged on two wires of 40 μm diameter in a Halpern-Mulvany myograph (J.P. Trading, Aarhus, Denmark) to record […]. […] The arteries were contracted with 1 μM of noradrenaline and their relaxation responses were assessed after adding to the cavities increasing amounts of the different compounds. […]

[2] = test system: resistance arteries of the human penis; experiment: Relaxation of noradrenaline-contracted human penile resistance arteries induced by sildenaphyl (myograph); settings: 10 μM; arteries contracted with 1 μM noradrenaline; FIG. 2
Procedure: as §1, §2, §3

[3] = test system: nitrergic terminations in resistance arteries of the human penis; experiment: Relaxation of human penile resistance arteries induced by transmural electrical stimulation of nitrergic terminations (myograph)
Procedure: as §1, §2, §3

[4] = patients; variable in different patients; cited from earlier work

## O=S(=O)([O-])c1cc(O)ccc1O.O=S(=O)([O-])c1cc(O)ccc1O.[Ca+2] [Calcium dobesylate, Calcium 2,5-dihidroxybenzenosulphonate]
[1]
  effect on the relaxation produced by different concentrations of sodium nitroprussiate (SNP): increases, in a statistically significant manner, the relaxation
[2]
  effect on the relaxation produced by different concentrations of sildenaphyl: increases, in a statistically significant manner, the relaxation
[3]; 10 μM combined with 10 nM sildenaphyl, increasing frequencies, FIG. 4
  effect on the effects of 10 nM of sildenaphyl on the relaxation produced by electrical stimulation: increases, in a statistically significant manner, the effects of 10 nM of sildenaphyl
[3]; 10 μM, TES 0.5, 1, 2 and 6 Hz, FIG. 3
  effect on the relaxation produced by electrical stimulation at increasing frequencies of the nitrergic terminations: increases, in a statistically significant manner, the relaxation

## CCCc1nn(C)c2c(=O)[nH]c(-c3cc(S(=O)(=O)N4CCN(C)CC4)ccc3OCC)nc12 [sildenaphyl]
[4]
  therapeutic response: ≤ 50%
